Reference: patent US20200115357A1, “LIVER X RECEPTORS (LXR) MODULATORS” (Phenex-FXR GmbH, priority 2017, published 2020)

Tests used:
[1] = biological target: T1, GST-LXRβ ligand-binding domain (Homo sapiens, UniProt P55055, DUP175-175); assay: TR-FRETβ activity assay (LXRβ-LBD / NCoA3 coactivator peptide, prestimulated with 24(S)-25-epoxycholesterol); format: biochemical; design: key to behavior in FRET assay: ag=agonist; ia=inverse agonist; conditions: for EC50 / FRETβ activity range (EC50): 1 μM 24(S)-25-epoxycholesterol as prestimulating agonist; for EC50: read-out: FRETβ activity range (EC50); for behavior in FRET assay: agonist or inverse agonist
T1 construct: amino acids 156-461; NP009052; made in house; host or cells: E. coli
T1 sequence (P55055 with tags, fused parts or gaps DUP175-175): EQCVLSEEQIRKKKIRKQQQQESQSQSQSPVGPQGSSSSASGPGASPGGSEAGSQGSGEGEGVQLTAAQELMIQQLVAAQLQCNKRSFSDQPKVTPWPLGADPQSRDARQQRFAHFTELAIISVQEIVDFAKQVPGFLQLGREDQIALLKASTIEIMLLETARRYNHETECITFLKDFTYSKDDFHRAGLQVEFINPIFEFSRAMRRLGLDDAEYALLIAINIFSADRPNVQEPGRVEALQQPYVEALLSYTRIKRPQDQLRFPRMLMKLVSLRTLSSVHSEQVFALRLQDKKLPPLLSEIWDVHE
Protocol: The tested compounds were usually dissolved, tested and stored as 20 mM stock solutions in DMSO. […] Sulfonyl acetic acid derivatives are shelf stable as solid at rt for long time as reported by Griesbrecht et al. (Synlett 2010:374) or Faucher et al. (J. Med. Chem. 2004; 47:18). TR-FRETβ Activity Assay Recombinant GST-LXRβ ligand-binding domain (LBD; amino acids 156-461; NP009052; SEQ ID NO:2) was expressed in E. coli and purified via gluthatione-sepharose affinity chromatography. N-terminally biotinylated NCoA3 coactivator peptide (SEQ ID NO:1) was chemically synthesized (Eurogentec). […] Finally, a detection mix was added containing anti GST-Tb cryptate (CisBio; 610SAXLB) and Streptavidin-XL665 (CisBio; 610SAXLB) as fluorescent donor and acceptor, respectively, as well as the coactivator peptide and LXRβ-LBD protein (SEQ ID NO:2). The reaction was mixed thoroughly, equilibrated for 1 h at 4° C. and vicinity of LXRβ and coactivator peptide was detected by measurement of fluorescence in a VictorX4 multiplate reader (PerkinElmer Life Science) using 340 nm as excitation and 615 and 665 nm as emission wavelengths. Assays were performed in triplicates. Final Assay Concentrations of Components: 240 mM KCl, 1 μg/μL BSA, 0.002% Triton-X-100, […] anti GST-Tb cryptate, 2.5 ng/μL Streptavidin-XL665, coactivator peptide (400 nM), LXRβ protein ([…], i.e. 76 nM)

[2] = biological target: T2, LXRα ligand-binding domain (LBD) (Homo sapiens, UniProt Q13133); assay: LXR Gal4 reporter transient transfection assay (M2H), Gal4α LBD; format: cell-based; conditions: HEK293 cells
T2 construct: expressed in transfected cells; host or cells: HEK293
T2 sequence (Q13133 155-447): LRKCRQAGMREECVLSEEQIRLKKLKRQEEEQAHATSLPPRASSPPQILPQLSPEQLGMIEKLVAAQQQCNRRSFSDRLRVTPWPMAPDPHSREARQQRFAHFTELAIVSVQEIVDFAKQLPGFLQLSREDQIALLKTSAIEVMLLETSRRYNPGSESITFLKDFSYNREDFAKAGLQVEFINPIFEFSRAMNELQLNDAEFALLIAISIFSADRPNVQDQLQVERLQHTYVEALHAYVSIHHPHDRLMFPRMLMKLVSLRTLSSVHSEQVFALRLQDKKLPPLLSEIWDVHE
Protocol: (§1) The tested compounds were usually dissolved, tested and stored as 20 mM stock solutions in DMSO. Since sulfonyl acetic acid derivatives tend to decarboxylate under these conditions, these stock solutions were prepared, tested and stored as 20 mM DMSO stock solutions containing 100 mM trifluoroacetic acid (5 equivalents). Sulfonyl acetic acid derivatives are shelf stable as solid at rt for long time as reported by Griesbrecht et al. (Synlett 2010:374) or Faucher et al. (J. Med. Chem. 2004; 47:18).
(§2) LXR Gal4 Reporter Transient Transfection Assays
(§3) LXRα and LXRβ activity status was determined via detection of interaction with coactivator and corepressor proteins in mammalian two-hybrid experiments (M2H). For this, via transient transfection the full length (FL) proteins of LXRα (amino acids 1-447; NP005684; SEQ ID NO:7) or LXRβ-(amino acids 1-461; NP009052; SEQ ID NO:8) or the ligand-binding domains (LBD) of LXRα (amino acids 155-447 SEQ ID NO:3) or LXRβ (amino acids 156-461; SEQ ID NO:4) were expressed from pCMV-AD (Stratagene) as fusions to the transcriptional activation domain of NFkB. As cofactors, domains of either the steroid receptor coactivator 1 (SRC1; amino acids 552-887; SEQ ID NO:5) or of the corepressor NCoR (amino acids 1903-2312 SEQ ID NO:6) were expressed as fusions to the DNA binding domain of the yeast transcription factor GAL4 (from pCMV-BD; Stratagene). Interaction was monitored via activation of a coexpressed Firefly Luciferase Reporter gene under control of a promoter containing repetitive GAL4 response elements (vector pFRLuc; Stratagene). Transfection efficiency was controlled via cotransfection of constitutively active pRL-CMV Renilla reniformis luciferase reporter (Promega). HEK293 cells were grown in minimum essential medium (MEM) with 2 mM L-glutamine and Earle's balanced salt solution supplemented with 8.3% fetal bovine serum, 0.1 mM non-essential amino acids, 1 mM sodium pyruvate, at 37° C. in 5% CO2. 3.5×10^4 cells/well were plated in 96-well cell culture plates in growth medium supplemented with 8.3% fetal bovine serum for 16-20 h to ˜90% confluency. For transfection, medium was taken off and LXR and cofactor expressing plasmids as well as the reporter plasmids are added in 30 μL OPTIMEM/well including polyethylene-imine (PEI) as vehicle. Typical amounts of plasmids transfected/well: pCMV-AD-LXR (5 ng), pCMV-BD-cofactor (5 ng), pFR-Luc (100 ng), pRL-CMV (0.5 ng). Compound stocks were prepared in DMSO, prediluted in MEM to a total volume of 120 μL, and added 4 h after addition of the transfection mixture (final vehicle concentration not exceeding 0.2%). Cells were incubated for additional 16 h, lysed for 10 min in 1× Passive Lysis Buffer (Promega) and Firefly and Renilla luciferase activities were measured sequentially in the same cell extract using buffers containing D-luciferine and coelenterazine, respectively. Measurements of luminescence were done in a BMG-Iuminometer.

[3] = biological target: T3, LXRβ ligand-binding domain (LBD) (Homo sapiens, UniProt P55055, DUP175-175); assay: LXR Gal4 reporter transient transfection assay (M2H), Gal4β LBD; format: cell-based; conditions: HEK293 cells; read-out: M2H Gal4β LBD activity range (EC50)
T3 construct: LXRβ (amino acids 156-461); expressed in transfected cells; host or cells: HEK293
T3 sequence (P55055 with tags, fused parts or gaps DUP175-175): T1 sequence (P55055 with tags, fused parts or gaps DUP175-175)
Protocol: as §1, §2, §3

LXRα full length (FL) = biological target: T4, LXRα full length (FL) (Homo sapiens, UniProt Q13133); assay: LXR Gal4 reporter transient transfection assay (M2H), Gal4α FL; format: cell-based; conditions: HEK293 cells; read-out: M2H Gal4α FL activity range (EC50)
T4 construct: the full length (FL) proteins of LXRα (amino acids 1-447); NP005684; expressed in transfected cells; host or cells: HEK293
T4 sequence (Q13133 1-447): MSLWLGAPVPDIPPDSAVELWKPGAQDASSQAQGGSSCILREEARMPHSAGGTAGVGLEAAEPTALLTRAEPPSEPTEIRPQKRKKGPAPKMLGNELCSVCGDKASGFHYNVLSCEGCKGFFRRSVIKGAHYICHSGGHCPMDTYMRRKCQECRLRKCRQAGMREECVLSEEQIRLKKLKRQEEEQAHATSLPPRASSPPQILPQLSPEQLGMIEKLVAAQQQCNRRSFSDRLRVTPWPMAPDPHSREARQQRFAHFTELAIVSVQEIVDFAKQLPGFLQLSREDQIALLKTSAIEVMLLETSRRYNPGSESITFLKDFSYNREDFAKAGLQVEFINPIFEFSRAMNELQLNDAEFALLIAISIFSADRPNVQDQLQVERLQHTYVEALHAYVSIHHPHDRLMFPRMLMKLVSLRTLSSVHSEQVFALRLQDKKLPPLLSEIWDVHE
Protocol: as §1, §2, §3

LXRβ full length (FL) = biological target: T5, LXRβ full length (FL) (Homo sapiens, UniProt P55055, DUP175-175); assay: LXR Gal4 reporter transient transfection assay (M2H), Gal4β FL; format: cell-based; conditions: HEK293 cells; read-out: M2H Gal4β FL activity range (EC50)
T5 construct: the full length (FL) proteins of LXRα (amino acids 1-447); NP005684; NP009052; expressed in transfected cells; host or cells: HEK293
T5 sequence (P55055 with tags, fused parts or gaps DUP175-175): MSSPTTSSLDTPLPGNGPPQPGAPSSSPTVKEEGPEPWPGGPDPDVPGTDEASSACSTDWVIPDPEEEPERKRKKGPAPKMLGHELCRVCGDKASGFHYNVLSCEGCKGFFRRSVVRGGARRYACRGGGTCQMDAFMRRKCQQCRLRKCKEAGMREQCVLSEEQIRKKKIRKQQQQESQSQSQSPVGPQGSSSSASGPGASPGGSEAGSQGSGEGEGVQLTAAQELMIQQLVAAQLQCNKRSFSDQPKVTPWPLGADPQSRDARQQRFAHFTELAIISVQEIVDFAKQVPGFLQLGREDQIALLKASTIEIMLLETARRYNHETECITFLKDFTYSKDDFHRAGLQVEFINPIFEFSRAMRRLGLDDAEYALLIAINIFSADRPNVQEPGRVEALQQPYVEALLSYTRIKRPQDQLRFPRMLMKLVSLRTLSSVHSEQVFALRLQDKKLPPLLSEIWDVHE
Protocol: as §1, §2, §3

Cc1cc(C)c(S(=O)(=O)N(Cc2ccc(C(F)(F)F)o2)CC2CCC(c3cccc(C(C)(C)C(=O)O)c3)CC2)c(C)c1 (centres unmarked) [Example 19/1]
EC50 [1]: 1 to 10 µM
behavior in FRET assay [1]: ia
M2H Gal4α LBD activity range (EC50) [2]: inactive
EC50 [3]: 0.1 to 1 µM

O=C(O)CS(=O)(=O)c1cccc(-c2ccc(CN(Cc3ccc(C(F)(F)F)o3)S(=O)(=O)c3cccc4ccccc34)cc2)c1 [10/9]
EC50 [1]: 1 to 10 µM
behavior in FRET assay [1]: ia
EC50 (LXRα full length (FL)): 1 to 10 µM
EC50 (LXRβ full length (FL)): 0.1 to 1 µM

Cc1cc(C)c(S(=O)(=O)N(Cc2ccc(-c3cccc(S(=O)(=O)CC(=O)O)c3)cc2)Cc2cccc(Cl)c2)c(C)c1 [11/16]
FRETβ activity range (EC50) [1]: inactive
EC50 (LXRα full length (FL)): 1 to 10 µM
EC50 (LXRβ full length (FL)): 0.1 to 1 µM

Cc1cc(C)c(S(=O)(=O)N(Cc2ccc(-c3cc(F)c(CO)c(S(=O)(=O)CC(=O)O)c3)cc2)Cc2ccc(C(F)(F)F)o2)c(C)c1 [Example 9, 2-((5-Fluoro-4-(hydroxymethyl)-4′-(((2,4,6-trimethyl-N-((5-(trifluoromethyl)furan-2-yl)methyl)phenyl)sulfonamido)methyl)-[1,1′-biphenyl]-3-yl)sulfonyl)acetic acid]
EC50 [1]: 1 to 10 µM
behavior in FRET assay [1]: ia
EC50 (LXRα full length (FL)): 0.1 to 1 µM
EC50 (LXRβ full length (FL)): 0.1 to 1 µM

O=C(O)CS(=O)(=O)c1cccc(-c2ccc(CN(Cc3ccc(C(F)(F)F)o3)S(=O)(=O)c3c(Cl)cccc3C(F)(F)F)cc2)c1 [10/3]
EC50 [1]: 1 to 10 µM
behavior in FRET assay [1]: ag
EC50 (LXRα full length (FL)): 1 to 10 µM
EC50 (LXRβ full length (FL)): 0.1 to 1 µM

Cc1cc(C)c(S(=O)(=O)N(Cc2ccc(-c3cccc(S(=O)(=O)CC(=O)O)c3)cc2)Cc2ccc(F)c(C)c2)c(C)c1 [11/5]
EC50 [1]: > 10 µM
behavior in FRET assay [1]: ia
EC50 (LXRα full length (FL)): 1 to 10 µM
EC50 (LXRβ full length (FL)): 0.1 to 1 µM

Cc1cc(C)c(S(=O)(=O)N(Cc2ccc(-c3cccc(S(=O)(=O)CC(=O)O)c3)cc2)C(C)(C)c2ccc(C(F)(F)F)o2)c(C)c1 [Example 17, 2-((4′-(((2,4,6-Trimethyl-N-(2-(5-(trifluoromethyl)furan-2-yl)propan-2-yl)phenyl)sulfon-amido)methyl)-[1,1′-biphenyl]-3-yl)sulfonyl)acetic acid]
EC50 [1]: 1 to 10 µM
EC50 (LXRα full length (FL)): 1 to 10 µM
EC50 (LXRβ full length (FL)): 1 to 10 µM

Cc1cc(C)c(S(=O)(=O)N(Cc2ccc(-c3cccc(C(C)(C)C(=O)O)c3)cc2)c2ccc(C(F)(F)F)o2)c(C)c1 [10/7]
EC50 [1]: 0.1 to 1 µM
behavior in FRET assay [1]: ag
EC50 (LXRα full length (FL)): 0.1 to 1 µM
EC50 (LXRβ full length (FL)): < 0.1 µM

CC(C)(C(=O)O)c1cccc(-c2ccc(CN(Cc3ccc(C(F)(F)F)o3)S(=N)(=O)c3cccc4ccccc34)cc2)c1 (centres unmarked) [Example 26, 2-Methyl-2-(4′-((N-((5-(trifluoromethyl)furan-2-yl)methyl)naphthalene-1-sulfonoamid-imidamido)methyl)-[1,1′-biphenyl]-3-yl)propanoic acid]
EC50 [1]: 0.1 to 1 µM
behavior in FRET assay [1]: ia
EC50 (LXRα full length (FL)): < 0.1 µM
EC50 (LXRβ full length (FL)): < 0.1 µM

Cc1cc(C)c(S(=O)(=O)N(Cc2ccc(-c3cccc(S(=O)(=O)CC(=O)O)c3)cc2)Cc2csc(C(F)(F)F)c2)c(C)c1 [11/10]
EC50 [1]: 1 to 10 µM
behavior in FRET assay [1]: ia
EC50 (LXRα full length (FL)): 1 to 10 µM
EC50 (LXRβ full length (FL)): 1 to 10 µM

Cc1ccc2cccnc2c1S(=O)(=O)N(Cc1ccc(-c2cccc(C(C)(C)C(=O)NS(C)(=O)=O)c2)cc1)Cc1ccc(C(F)(F)F)o1 [Example 29, 2-Methyl-2-(4′-(((7-methyl-N-((5-(trifluoromethyl)furan-2-yl)methyl)quinoline)-8-sulfon-amido)methyl)-[1,1′-biphenyl]-3-yl)-N-(methylsulfonyl)propanamide]
FRETβ activity range (EC50) [1]: inactive
EC50 (LXRα full length (FL)): 0.1 to 1 µM
EC50 (LXRβ full length (FL)): 0.1 to 1 µM
